According to PubChem BioAssay AID2060901 (Molecular Pharmacology Branch, DTP, NCI, 2025):

System: 422866-222-R5-J1-PDC complex spheroids viability
Test: Anticancer human tumor 422866-222-R5-J1-PDC patient-derived pancreatic adenocarcinoma cell line growth inhibition [RAS]
Details: for IC50: curve of first compound; for viability, T/C: stronger effect = lower value
Procedure, shortened: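 Agents were tested in combination matrices in half-log decrements from a top concentration at or near clinical Cmax (10 microM if undetermined). Targets were multi-cell spheroids of tumour lines plus HUVEC and MSC stromal cells.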
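Also: spheroids exposed to compounds for 7 days.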
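For viability, T/C in this document: 100% = DMSO vehicle control viability.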

`CCc1c2c(nc3ccc(O)cc13)-c1cc3c(c(=O)n1C2)COC(=O)[C@]3(O)CC` + C=CC(=O)N1CCN(c2nc(OCC3CCCN3C)nc3c(F)c(-c4nc(N)cc(C)c4C(F)(F)F)c(Cl)cc23)C(C)C1 was tested, and the IC50 (second compound 0.00316 µM) was less than 0.949 nM, the IC50 (second compound 0.01 µM) was less than 0.949 nM and the IC50 (second compound 0.0316 µM) was less than 0.949 nM. For the same molecule, the IC50 (second compound 0.1 µM) was less than 0.949 nM, the IC50 (second compound 0.316 µM) was less than 0.949 nM and the IC50 (second compound 1 µM) was less than 0.949 nM. It also gave a viability, T/C (second compound 0.00316 µM, first compound 0.000949 µM) of 25.3%, a viability, T/C (second compound 0.00316 µM, first compound 0.003 µM) of 21.1% and a viability, T/C (second compound 0.00316 µM, first compound 0.00949 µM) of 15.8%. The viability, T/C (second compound 0.00316 µM, first compound 0.03 µM) was 15.9%, the viability, T/C (second compound 0.00316 µM, first compound 0.0949 µM) was 15.2% and the viability, T/C (second compound 0.00316 µM, first compound 0.3 µM) was 11.3%. For the same molecule, the viability, T/C (second compound 0.01 µM, first compound 0.000949 µM) was 24.9%, the viability, T/C (second compound 0.01 µM, first compound 0.003 µM) was 20.7% and the viability, T/C (second compound 0.01 µM, first compound 0.00949 µM) was 18.1%. For the same molecule, the viability, T/C (second compound 0.01 µM, first compound 0.03 µM) was 18.3%, the viability, T/C (second compound 0.01 µM, first compound 0.0949 µM) was 12.9% and the viability, T/C (second compound 0.01 µM, first compound 0.3 µM) was 10.9%. The viability, T/C (second compound 0.0316 µM, first compound 0.000949 µM) was 25.3%, the viability, T/C (second compound 0.0316 µM, first compound 0.003 µM) was 18.3% and the viability, T/C (second compound 0.0316 µM, first compound 0.00949 µM) was 16.8%. For the same molecule, the viability, T/C (second compound 0.0316 µM, first compound 0.03 µM) was 14.8%, the viability, T/C (second compound 0.0316 µM, first compound 0.0949 µM) was 15.4% and the viability, T/C (second compound 0.0316 µM, first compound 0.3 µM) was 15.6%. It also gave a viability, T/C (second compound 0.1 µM, first compound 0.000949 µM) of 21.8%, a viability, T/C (second compound 0.1 µM, first compound 0.003 µM) of 15.9% and a viability, T/C (second compound 0.1 µM, first compound 0.00949 µM) of 15.4%. It also gave a viability, T/C (second compound 0.1 µM, first compound 0.03 µM) of 16.2%, a viability, T/C (second compound 0.1 µM, first compound 0.0949 µM) of 14.6% and a viability, T/C (second compound 0.1 µM, first compound 0.3 µM) of 10.9%. It also gave a viability, T/C (second compound 0.316 µM, first compound 0.000949 µM) of 19.1%, a viability, T/C (second compound 0.316 µM, first compound 0.003 µM) of 17.5% and a viability, T/C (second compound 0.316 µM, first compound 0.00949 µM) of 15.6%. It also gave a viability, T/C (second compound 0.316 µM, first compound 0.03 µM) of 14.2%, a viability, T/C (second compound 0.316 µM, first compound 0.0949 µM) of 12.8% and a viability, T/C (second compound 0.316 µM, first compound 0.3 µM) of 12.3%. The viability, T/C (second compound 1 µM, first compound 0.000949 µM) was 17%, the viability, T/C (second compound 1 µM, first compound 0.003 µM) was 16% and the viability, T/C (second compound 1 µM, first compound 0.00949 µM) was 17.1%. For the same molecule, the viability, T/C (second compound 1 µM, first compound 0.03 µM) was 14%, the viability, T/C (second compound 1 µM, first compound 0.0949 µM) was 14.4% and the viability, T/C (second compound 1 µM, first compound 0.3 µM) was 13.1%.

Molecule `Nc1ccn(C2OC(CO)C(O)C2(F)F)c(=O)n1` (centres undefined) + C=CC(=O)N1CCN(c2nc(OCC3CCCN3C)nc3c(F)c(-c4nc(N)cc(C)c4C(F)(F)F)c(Cl)cc23)C(C)C1 has an IC50 (second compound 0.00316 µM) of less than 3.16 nM, an IC50 (second compound 0.01 µM) of less than 3.16 nM and an IC50 (second compound 0.0316 µM) of less than 3.16 nM. The IC50 (second compound 0.1 µM) was less than 3.16 nM, the IC50 (second compound 0.316 µM) was less than 3.16 nM and the IC50 (second compound 1 µM) was less than 3.16 nM. For the same molecule, the viability, T/C (second compound 0.00316 µM, first compound 0.00316 µM) was 25.5%, the viability, T/C (second compound 0.00316 µM, first compound 0.01 µM) was 26.6% and the viability, T/C (second compound 0.00316 µM, first compound 0.0316 µM) was 21.8%. It also gave a viability, T/C (second compound 0.00316 µM, first compound 0.1 µM) of 18.7%, a viability, T/C (second compound 0.00316 µM, first compound 0.316 µM) of 14.8% and a viability, T/C (second compound 0.00316 µM, first compound 1 µM) of 14.9%. It also gave a viability, T/C (second compound 0.01 µM, first compound 0.00316 µM) of 26.6%, a viability, T/C (second compound 0.01 µM, first compound 0.01 µM) of 22.7% and a viability, T/C (second compound 0.01 µM, first compound 0.0316 µM) of 21.7%. It also gave a viability, T/C (second compound 0.01 µM, first compound 0.1 µM) of 15.7%, a viability, T/C (second compound 0.01 µM, first compound 0.316 µM) of 15.3% and a viability, T/C (second compound 0.01 µM, first compound 1 µM) of 17%. For the same molecule, the viability, T/C (second compound 0.0316 µM, first compound 0.00316 µM) was 27.5%, the viability, T/C (second compound 0.0316 µM, first compound 0.01 µM) was 19.9% and the viability, T/C (second compound 0.0316 µM, first compound 0.0316 µM) was 19.3%. For the same molecule, the viability, T/C (second compound 0.0316 µM, first compound 0.1 µM) was 16.9%, the viability, T/C (second compound 0.0316 µM, first compound 0.316 µM) was 15.9% and the viability, T/C (second compound 0.0316 µM, first compound 1 µM) was 14.1%. It also gave a viability, T/C (second compound 0.1 µM, first compound 0.00316 µM) of 21.9%, a viability, T/C (second compound 0.1 µM, first compound 0.01 µM) of 21.6% and a viability, T/C (second compound 0.1 µM, first compound 0.0316 µM) of 18.6%. The viability, T/C (second compound 0.1 µM, first compound 0.1 µM) was 16.4%, the viability, T/C (second compound 0.1 µM, first compound 0.316 µM) was 14.8% and the viability, T/C (second compound 0.1 µM, first compound 1 µM) was 14.6%. The viability, T/C (second compound 0.316 µM, first compound 0.00316 µM) was 24.8%, the viability, T/C (second compound 0.316 µM, first compound 0.01 µM) was 20.4% and the viability, T/C (second compound 0.316 µM, first compound 0.0316 µM) was 20%. The viability, T/C (second compound 0.316 µM, first compound 0.1 µM) was 18.1%, the viability, T/C (second compound 0.316 µM, first compound 0.316 µM) was 16.7% and the viability, T/C (second compound 0.316 µM, first compound 1 µM) was 17.4%. For the same molecule, the viability, T/C (second compound 1 µM, first compound 0.00316 µM) was 22.9%, the viability, T/C (second compound 1 µM, first compound 0.01 µM) was 19.7% and the viability, T/C (second compound 1 µM, first compound 0.0316 µM) was 19%. The viability, T/C (second compound 1 µM, first compound 0.1 µM) was 14.2%, the viability, T/C (second compound 1 µM, first compound 0.316 µM) was 18% and the viability, T/C (second compound 1 µM, first compound 1 µM) was 17.4%.
